Results taken from article PMC4894499 (Journal of pharmaceutical sciences, 2016).
One block for each molecule: values may come before it.

Experiments:
[1] = Bile acid toxicity: intracellular ATP; format: cell-based, human; conditions: human, sandwich-cultured hepatocytes (SCH)
[2] = Bile acid toxicity: LDH release in rat SCH; format: cell-based; conditions: rat, sandwich-cultured hepatocytes (SCH)
[3] = Bile acid toxicity: LDH release in human SCH; format: cell-based; conditions: human, sandwich-cultured hepatocytes (SCH)
[4] = Bile acid toxicity: intracellular ATP; format: cell-based, rat; conditions: rat, sandwich-cultured hepatocytes (SCH)
human SCH [5] = assay: Intracellular bile acid concentrations by LC-MS/MS in human SCH; format: in vitro ADME; conditions: LCA-treated SCH
human SCH [6] = assay: Bile acid toxicity: intracellular ATP; format: cell-based; conditions: human SCH, 0 – 0.2 mM LCA, 6, 12, 24 hr
rat SCH [7] = assay: Bile acid toxicity: LDH release in rat SCH; format: cell-based; conditions: rat SCH, 0 – 0.2 mM LCA, 6, 12, 24 hr
human SCH [8] = assay: Bile acid toxicity: LDH release in human SCH; format: cell-based; conditions: human SCH, 0 – 0.2 mM LCA, 6, 12, 24 hr
rat SCH [9] = assay: Bile acid toxicity: intracellular ATP; format: cell-based; conditions: rat SCH, 0 – 0.2 mM LCA, 6, 12, 24 hr
rat SCH [10] = tested on: rat SCH
human SCH [11] = conditions: cited from earlier work
rat SCH [12] = conditions: cited from earlier work
human SCH [13] = conditions: cited from earlier work; for Effect on total (cell + bile) and cellular accumulation of TCA: concentration-dependent
human SCH [14] = conditions: fold greater; cited from earlier work
human SCH [15] = conditions: cited from earlier work; remark: listed apart in the source
rat SCH [16] = conditions: cited from earlier work; remark: listed apart in the source
P-gp = conditions: human SCH, treatment for 3 days; cited from earlier work
CYP3A4 and UGT1A1 = conditions: human SCH; cited from earlier work
human SCH [17] = conditions: cited from earlier work; remark: listed apart in the source

SMILES: C[C@H](CCC(=O)O)[C@H]1CC[C@H]2[C@@H]3[C@H](O)C[C@@H]4C[C@H](O)CC[C@]4(C)[C@H]3CC[C@]12C [CDCA, chenodeoxycholic acid]
CC50 at 24 h [1]: 568 µM | CC50 at 24 h [2]: 243 µM | CC50 at 24 h [3]: 972 µM | CC50 at 24 h [4]: 351 µM

SMILES: C[C@H](CCC(=O)NCC(=O)O)[C@H]1CC[C@H]2[C@@H]3CC[C@@H]4C[C@H](O)CC[C@]4(C)[C@H]3CC[C@]12C [GLCA, glycolithocholic acid]
Intracellular concentration in human SCH compared with rat SCH (human SCH [5]): comparable

SMILES: C[C@H](CCC(=O)O)[C@H]1CC[C@H]2[C@@H]3CC[C@@H]4C[C@H](O)CC[C@]4(C)[C@H]3CC[C@]12C [LCA, lithocholic acid]
CC50 at 24 h [1]: 155 µM | Effect on cellular ATP (human SCH [6]): delayed decrease | LDH leakage (rat SCH [7]): increase | CC50 at 24 h [2]: 146 µM | LDH leakage (human SCH [8]): minimal | Effect on cellular ATP (rat SCH [9]): concentration-dependent decrease | CC50 at 24 h [4]: 147 µM | Intracellular concentration in human SCH compared with rat SCH (human SCH [5]): comparable

Cellular concentration relative to CDCA, fold lower (rat SCH [10]): ~ 100 fold
SMILES: C[C@H](CCC(=O)NCCS(=O)(=O)O)[C@H]1CC[C@H]2[C@@H]3[C@H](O)C[C@@H]4C[C@H](O)CC[C@]4(C)[C@H]3CC[C@]12C [TCDCA, taurochenodeoxycholic acid]

SMILES: Cc1c(C)c2c(c(C)c1O)CCC(C)(COc1ccc(CC3SC(=O)NC3=O)cc1)O2 (stereo not shown) [TGZ, troglitazone]
Effect on canalicular efflux of TCA (human SCH [11]): significantly reduced | Effect on CDCA accumulation in hepatocytes (rat SCH [12]): increased | Effect on cellular accumulation of TCA (rat SCH [12]): decreased

Intracellular concentration in human SCH relative to rat SCH, fold lower (human SCH [5]): ~ 100 fold
SMILES: C[C@H](CCC(=O)NCCS(=O)(=O)O)[C@H]1CC[C@H]2[C@@H]3CC[C@@H]4C[C@H](O)CC[C@]4(C)[C@H]3CC[C@]12C [TLCA, taurolithocholic acid]

SMILES: COC(c1ccccc1)(c1ccccc1)[C@H](Oc1nc(C)cc(C)n1)C(=O)O [ambrisentan]
Effect on BEI and apparent biliary clearance of TCA (TCA biliary excretion) (human SCH [13]): minimal inhibitory effects | Hepatocyte concentration relative to medium concentration (human SCH [14]): 2 fold

SMILES: COC(=O)N[C@H](C(=O)N[C@@H](Cc1ccccc1)[C@@H](O)CN(Cc1ccc(-c2ccccn2)cc1)NC(=O)[C@@H](NC(=O)OC)C(C)(C)C)C(C)(C)C [atazanavir]
Effect on CGamF accumulation (human SCH [15]): potently inhibited

SMILES: COc1ccccc1Oc1c(NS(=O)(=O)c2ccc(C(C)(C)C)cc2)nc(-c2ncccn2)nc1OCCO [bosentan]
Effect on BEI and apparent biliary clearance of TCA (TCA biliary excretion) (human SCH [13]): significantly decreased | Effect on sodium-dependent TCA uptake (human SCH [13]): significantly inhibited | Effect on total (cell + bile) and cellular accumulation of TCA (human SCH [13]): significantly decreased | Hepatocyte concentration relative to medium concentration (human SCH [14]): 20 fold

SMILES: CCCC1O[C@@H]2C[C@H]3[C@@H]4CCC5=CC(=O)C=C[C@]5(C)[C@H]4[C@@H](O)C[C@]3(C)[C@]2(C(=O)CO)O1 (stereo partly shown) [budesonide]
Effect on canalicular efflux of TCA (human SCH [11]): minimal effects

SMILES: CC(C)CN(C[C@@H](O)[C@H](Cc1ccccc1)NC(=O)O[C@H]1CO[C@H]2OCC[C@H]21)S(=O)(=O)c1ccc(N)cc1 [darunavir]
Effect on CGamF accumulation (human SCH [15]): potently inhibited

SMILES: COc1ccc(Cl)cc1C(=O)NCCc1ccc(S(=O)(=O)NC(=O)NC2CCCCC2)cc1 [glyburide]
Effect on canalicular efflux of TCA (human SCH [11]): minimal effects

SMILES: CC(C)(C)NC(=O)[C@@H]1CN(Cc2cccnc2)CCN1C[C@@H](O)C[C@@H](Cc1ccccc1)C(=O)N[C@H]1c2ccccc2C[C@H]1O [indivanir]
Effect on CGamF accumulation (human SCH [15]): potently inhibited

SMILES: COC(=O)C1=C(C)NC(C)=C(C(=O)OC(C)C)C1c1cccc2nonc12 (stereo not shown) [isradipine]
Effect on canalicular efflux of TCA (human SCH [11]): minimal effects

SMILES: Cc1cccc(C)c1OCC(=O)N[C@@H](Cc1ccccc1)[C@@H](O)C[C@H](Cc1ccccc1)NC(=O)[C@H](C(C)C)N1CCCNC1=O [lopinavir]
Effect on TCA biliary excretion (BEI and CLb, app, in vitro) (rat SCH [16]): significantly reduced | Effect on intracellular accumulation of TCA (rat SCH [16]): increased

SMILES: CCCNS(=O)(=O)Nc1ncnc(OCCOc2ncc(Br)cn2)c1-c1ccc(Br)cc1 [macitentan]
Effect on BEI and apparent biliary clearance of TCA (TCA biliary excretion) (human SCH [13]): significantly decreased | Effect on total (cell + bile) and cellular accumulation of TCA (human SCH [13]): significantly decreased | Hepatocyte concentration relative to medium concentration (human SCH [14]): about 100 fold

SMILES: CC#C[C@]1(O)CC[C@H]2[C@@H]3CCC4=CC(=O)CCC4=C3[C@@H](c3ccc(N(C)C)cc3)C[C@@]21C [mifepristone]
Effect on canalicular efflux of TCA (human SCH [11]): minimal effects

SMILES: CO[C@H]1/C=C/O[C@@]2(C)Oc3c(C)c(O)c4c(O)c(c(/C=N/N5CCN(C)CC5)c(O)c4c3C2=O)NC(=O)/C(C)=C\C=C\[C@H](C)[C@H](O)[C@@H](C)[C@@H](O)[C@@H](C)[C@H](OC(C)=O)[C@@H]1C [rifampicin]
Effect on BEI of digoxin (P-gp): increase

SMILES: CO[C@H]1/C=C/O[C@@]2(C)Oc3c(C)c(O)c4c(O)c(cc(O)c4c3C2=O)NC(=O)/C(C)=C\C=C\[C@H](C)[C@H](O)[C@@H](C)[C@@H](O)[C@@H](C)[C@H](OC(C)=O)[C@@H]1C [rifamycin SV]
Effect on intracellular accumulation of buprenorphine and midazolam (CYP3A4 and UGT1A1): increased

SMILES: CC(C)c1nc(CN(C)C(=O)N[C@H](C(=O)N[C@@H](Cc2ccccc2)C[C@H](O)[C@H](Cc2ccccc2)NC(=O)OCc2cncs2)C(C)C)cs1 [ritonavir]
Effect on canalicular efflux of TCA (human SCH [11]): significantly reduced | Effect on 99mTc–mebrofenin uptake (human SCH [17]): decreased | Effect on BEI of 99mTc–mebrofenin (human SCH [17]): without changing | Effect on TCA biliary excretion (BEI and CLb, app, in vitro) (rat SCH [16]): significantly reduced | Effect on intracellular accumulation of TCA (rat SCH [16]): increased

SMILES: CN(CCOc1ccc(CC2SC(=O)NC2=O)cc1)c1ccccn1 (stereo not shown) [rosiglitazone]
Effect on canalicular efflux of TCA (human SCH [11]): significantly reduced

SMILES: Cc1cc2c(cc1CC(=O)c1sccc1S(=O)(=O)Nc1onc(C)c1Cl)OCO2 [sitaxsentan]
Effect on sodium-dependent TCA uptake (human SCH [13]): significantly inhibited | Hepatocyte concentration relative to medium concentration (human SCH [14]): 40 fold
